Measured values published in patent US12582104B2, “Mutant myocilin disease model and uses thereof” (Regeneron Pharmaceuticals, Inc., priority 2021, dated 2026).

Test system: SAM-MYOC mice
Experiment: Intraocular pressure (IOP) in SAM-MYOC mice
Assay type: in vivo, mouse
Conditions: SAM-MYOC mice approximately 10 weeks after AAV2.Y3F-SAM-g4; one drop per eye; IOP at 2, 4, 6, and 24 hours
Experimental: To validate the SAM mice comprising a humanized MYOC locus comprising a Y437H mutation (SAM-MYOC mice), SAM-MYOC mice homozygous or heterozygous for the humanized MYOC locus were treated with AAV2.Y3F-SAM-g4, AAV2.Y3F-SAM-g5, an AAV2.Y3F-SAM-LacZ control, or nothing (naïve). […] This validated the SAM-MYOC mice as a suitable MYOC disease model with increased IOP.
IOP-lowering drugs used to treat glaucoma patients were then tested as a proof-of-concept to determine if they could lower the IOP observed in the SAM-MYOC mice following treatment with SAM-g4. We tested two IOP-lowering drugs: (1) timolol (a beta blocker that suppresses aqueous humor formation); and (2) RHOPRESSA® (a ROCK inhibitor that increases outflow of aqueous humor). […] At 0 hours, the IOP was measured, and each eye received one drop of either timolol or RHOPRESSA®, and IOP was measured at 2, 4, 6, and 24 hours after treatment.
An siRNA targeting human MYOC was then tested to determine if it could lower the high IOP observed in the SAM-MYOC mice following treatment with SAM-g4. SAM-g4 was administered via intracameral (IC) injection at day 0, and baseline IOP was measured. IOP was then measured over the following five weeks. At week five, MYOC siRNA #1 (1 μL, 15 μg dose) was administered via intravitreal (IVT) injection, and IOP was measured at various timepoints over the subsequent weeks. […]

CC(C)(C)NC[C@H](O)COc1nsnc1N1CCOCC1 [timolol]
IOP after IOP-lowering drug: effective at lowering IOP
